Measured values: PMC3237458, “PEGylation Potentiates the Effectiveness of an Antagonistic Peptide That Targets the EphB4 Receptor with Nanomolar Affinity” (PLoS ONE, 2011)
“Also recorded” adds a separate entry of the source. Square brackets hold non-standard residues; d marks the D form. Peptide text beside a SMILES is read from it. * marks the point of attachment. Biotin = O=C1N[C@H]2[C@H](CS[C@H]2CCCCC(=O)*)N1; Ahx = NCCCCCC(=O)O

How the values were obtained:
EphB4-ephrin-B2 binding = molecular target: T1, EphB4-ephrin-B2 binding (Mus musculus, UniProt P54761); test: ELISA inhibition of EphB4-ephrin-B2 binding (ephrin-B2 AP on immobilized EphB4 Fc); details: incubated in conditioned medium for 4 hours before ELISA; Figure 1C
T1 construct: EphB4 Fc, a soluble dimeric form of the EphB4 extracellular domain fused to Fc; purchased R&D Systems, Minneapolis, MN (EphB4 Fc); ephrin-B2 AP made in house from a GeneHunter plasmid; host or cells: HEK 293T cells for ephrin-B2 AP
T1 sequence (P54761 16-539 limits assumed): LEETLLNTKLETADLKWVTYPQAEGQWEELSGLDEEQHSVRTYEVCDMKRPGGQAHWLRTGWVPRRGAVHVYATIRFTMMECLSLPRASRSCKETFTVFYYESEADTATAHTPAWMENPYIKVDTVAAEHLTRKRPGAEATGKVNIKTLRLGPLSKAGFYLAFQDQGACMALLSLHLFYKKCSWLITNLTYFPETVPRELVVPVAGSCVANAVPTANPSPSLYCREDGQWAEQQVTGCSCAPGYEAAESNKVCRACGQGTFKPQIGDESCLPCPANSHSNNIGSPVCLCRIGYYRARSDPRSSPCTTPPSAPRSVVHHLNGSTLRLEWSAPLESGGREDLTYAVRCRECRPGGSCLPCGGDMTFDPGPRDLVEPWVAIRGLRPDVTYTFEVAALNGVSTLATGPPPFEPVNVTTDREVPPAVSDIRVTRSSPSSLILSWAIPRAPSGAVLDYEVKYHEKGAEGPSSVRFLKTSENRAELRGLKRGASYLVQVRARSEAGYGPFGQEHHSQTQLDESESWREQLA
Procedure: Alkaline phosphatase (AP) fusion proteins were produced by transiently transfecting the mouse EphB4 AP [70] or mouse ephrin-B2 AP plasmids (GeneHunter, Nashville, TN) in HEK 293T cells and growing the cells in serum-free Opti-MEM medium for 2–4 days. If necessary, the culture medium containing the secreted AP protein was concentrated by centrifugation in Amicon 30,000 MW cutoff filters (Millipore, Inc., Temecula, CA). EphB4 and ephrin-B2 AP concentrations were calculated from alkaline phosphatase activity.
EphB4 Fc (1 µg/ml in TBST) was immobilized in protein A-coated plates and incubated for 3 hours with 0.02 nM ephrin-B2 AP in culture medium diluted in TBST in the presence of different concentrations of TNYL-RAW, TNYL-RAW-Fc, TNYL-RAW-streptavidin and PEG-TNYL-RAW. Bound ephrin-B2 AP was quantified by adding pNPP as the substrate and measuring the absorbance at 405 nm. Alkaline phosphatase activity from wells where human Fc (R&D Systems, Minneapolis, MN) was added instead of EphB4 Fc was subtracted as the background. The binding curves were analyzed using non linear regression and the program Prism (GraphPad Software Inc.).

[1] = Peptide stability in mouse serum ex vivo; format: in vitro ADME; details: 37°C
[2] = Peptide retention in mouse blood circulation; format: in vivo; details: 6 nmoles biotinylated TNYL-RAW IV, 3 mice, serum diluted 1:20, ELISA on EphB4 Fc; Figure 1D
Procedure: 2.1 nmoles TNYL-RAW-Fc, 1.5 nmoles TNYL-RAW-streptavidin and 6 nmoles PEG-TNYL-RAW, diluted in 150 µl sterile PBS, were administered to C57BL/6 mice by intravenous or intraperitoneal injection. Blood was collected from each mouse from the orbital sinus at two time points after injection and by cardiac puncture under Avertin anesthesia at a third time point. These experiments were carried out in accordance with the recommendations in the Guide for the Care and Use of Laboratory Animals of the National Institutes of Health. The protocol was approved by the Institutional Animal Care and Use Committee of the Sanford-Burnham Medical Research Institute (Animal Assurance Number: A-3053-1). After collection, the blood was […], and the serum was stored at −20°C. The different forms of TNYL-RAW in the serum were detected by using the same ELISA assays described above for measurements of binding affinity. The absorbance from wells incubated with mouse serum without TNYL-RAW was subtracted as the background and the concentration of TNYL-RAW in the blood was calculated based on a standard curve generated using serum containing known TNYL-RAW concentrations. The half-life of each peptide was estimated by using non linear regression and the program Prism (GraphPad Software Inc.). The area under the curve (AUC) was expressed as % ID•hours/ml (where ID is the initial dose of peptide injected) and calculated by dividing the AUC value obtained using the program Prism by the amount of injected peptide and multiplying by 100.

Stability in mouse serum ex vivo ([1]; undiluted mouse serum, functional peptide by ELISA, Figures 1E, 3B): rapidly lost
SMILES: CC[C@H](C)[C@H](NC(=O)[C@@H]1CCCN1C(=O)CNC(=O)[C@H](CC(N)=O)NC(=O)[C@@H]1CCCN1C(=O)[C@H](CO)NC(=O)[C@H](Cc1ccccc1)NC(=O)[C@H](CC(C)C)NC(=O)[C@H](Cc1ccc(O)cc1)NC(=O)[C@H](CC(N)=O)NC(=O)[C@@H](N)[C@@H](C)O)C(=O)N[C@@H](C)C(=O)N[C@@H](CCCNC(=N)N)C(=O)N[C@@H](C)C(=O)N[C@@H](Cc1c[nH]c2ccccc12)C(=O)NCCCCCC(=O)N[C@@H](CCCCNC(=O)CCCC[C@@H]1SC[C@@H]2NC(=O)N[C@@H]21)C(N)=O [TNYL-RAW] (H-TNYLFSPNGPIARAW[Ahx]K(Biotin)-NH2; N-terminus and C-terminus assumed)
Ability to inhibit ephrin-B2-EphB4 interaction after incubation in PC3 cell conditioned medium (EphB4-ephrin-B2 binding): abolished the ability of TNYL-RAW to inhibit ephrin-B2-EphB4 interaction
Loss in mouse serum ex vivo with protease inhibitors ([1]; mouse serum, mixture of protease inhibitors, ELISA, Fig. 1E): partially counteracted by a mixture of protease inhibitors
Detection in mouse serum 30 min after intravenous administration [2]: could not be detected; also recorded: undetectable
